From the supplement of paper PMC10307832

Tests used:
Test in all cases: relative viability (nuclei count vs DMSO), 5 days (fraction); higher = more cells survive
Cediranib + Lapatinib = compound: COc1cc2c(Oc3ccc4[nH]c(C)cc4c3F)ncnc2cc1OCCCN1CCCC1 [Cediranib] + CS(=O)(=O)CCNCc1ccc(-c2ccc3ncnc(Nc4ccc(OCc5cccc(F)c5)c(Cl)c4)c3c2)o1 [Lapatinib] (partner 2 µM)
How it was run: (§1)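 Lung cancer cell lines, seeded in 1536-well plates, were treated the following day by pin tool with a single drug or with five library-drug doses (not always all listed) in √10 steps on top of a fixed anchor-drug dose. Cells were fixed and nuclei stained in one step after 5 days, and nuclei were counted. Relative viability is the nuclei count for treated wells divided by that for vehicle wells, reported as medians of duplicate plates.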

Decitabine + Pemetrexed = compound: Nc1ncn([C@H]2C[C@H](O)[C@@H](CO)O2)c(=O)n1 [Decitabine] + Nc1nc2[nH]cc(CCc3ccc(C(=O)N[C@@H](CCC(=O)O)C(=O)O)cc3)c2c(=O)[nH]1 [Pemetrexed] (partner 0.2 µM)
How it was run: as §1

[1] = compound: O=C(C[C@H]1NCCC[C@@H]1O)Cn1cnc2cc(Br)c(Cl)cc2c1=O (racemic) [Halofuginone] + CS(=O)(=O)N1CCN(Cc2cc3nc(-c4cccc5[nH]ncc45)nc(N4CCOCC4)c3s2)CC1 [Pictilisib] (partner 1 µM)
How it was run: as §1

[2] = compound: O=C(C[C@H]1NCCC[C@@H]1O)Cn1cnc2cc(Br)c(Cl)cc2c1=O (racemic) [Halofuginone] + Nc1nc2[nH]cc(CCc3ccc(C(=O)N[C@@H](CCC(=O)O)C(=O)O)cc3)c2c(=O)[nH]1 [Pemetrexed] (partner 0.2 µM)
How it was run: as §1

| Cell Line | relative viability (Cediranib + Lapatinib; first compound 0.04 µM) | relative viability (Cediranib + Lapatinib; first compound 0.1265 µM) | relative viability (Cediranib + Lapatinib; first compound 0.4 µM) | relative viability (Cediranib + Lapatinib; first compound 1.265 µM) | relative viability (Cediranib + Lapatinib; first compound 4 µM) | relative viability (Decitabine + Pemetrexed; first compound 0.04 µM) | relative viability (Decitabine + Pemetrexed; first compound 0.1265 µM) | relative viability (Decitabine + Pemetrexed; first compound 0.4 µM) | relative viability (Decitabine + Pemetrexed; first compound 4 µM) | relative viability ([1]; first compound 0.001 µM) | relative viability ([1]; first compound 0.003162 µM) | relative viability ([1]; first compound 0.01 µM) | relative viability ([1]; first compound 0.03162 µM) | relative viability ([1]; first compound 0.1 µM) | relative viability ([2]; first compound 0.001 µM) | relative viability ([2]; first compound 0.003162 µM) | relative viability ([2]; first compound 0.01 µM) | relative viability ([2]; first compound 0.03162 µM) | relative viability ([2]; first compound 0.1 µM) | relative viability (Decitabine + Pemetrexed; first compound 1.265 µM) |
| --- | --- | --- | --- | --- | --- | --- | --- | --- | --- | --- | --- | --- | --- | --- | --- | --- | --- | --- | --- | --- |
| 201T | 1.08 | 0.897 | 1.02 | 1.01 | 0.996 | 0.297 | 0.286 | 0.227 | 0.254 | 0.708 | 0.647 | 0.666 | 0.597 | 0.516 | 0.31 | 0.329 | 0.346 | 0.311 | 0.313 |  |
| A549 | 0.927 | 1.01 | 0.949 | 0.994 | 0.992 |  |  |  |  | 0.569 | 0.547 | 0.53 | 0.347 | 0.0767 |  |  |  |  |  |  |
| A-427 | 1.03 |  | 0.938 | 0.897 | 0.981 | 0.847 | 0.779 | 0.466 | 0.474 | 0.683 | 0.749 | 0.73 | 0.756 | 0.66 | 1 | 1.03 | 0.945 | 0.946 | 0.887 | 0.474 |
| ABC-1 | 1.24 | 1.39 | 1.14 | 1.06 | 1.24 |  |  |  |  | 0.415 | 0.922 | 0.836 | 0.728 | 0.51 |  |  |  |  |  |  |
| BEN | 0.945 |  | 0.665 | 0.598 | 0.681 | 0.775 | 0.757 | 0.632 | 0.553 | 0.52 | 0.587 | 0.547 | 0.594 | 0.425 | 0.871 | 0.618 | 0.788 | 0.647 | 0.551 | 0.663 |
| CAL-12T | 0.681 |  | 0.614 | 0.676 | 0.877 | 1.07 | 1.04 | 0.599 | 0.36 | 0.691 | 0.277 |  | 0.468 | 0.323 | 1.17 | 1.08 | 1.3 | 0.953 | 0.72 | 0.609 |
| COR-L23 | 1.1 | 0.899 | 0.895 | 0.892 | 1.32 | 0.198 | 0.207 | 0.18 | 0.196 | 0.954 | 0.963 | 0.801 | 0.6 | 0.156 | 0.212 | 0.19 | 0.2 | 0.192 | 0.183 | 0.178 |
| COR-L 105 |  | 0.304 | 0.361 | 0.339 | 0.337 | 1.01 | 1.08 | 0.882 | 0.668 | 0.437 | 0.432 | 0.412 | 0.338 | 0.31 | 1.09 | 1.05 | 0.973 | 0.981 | 0.964 | 0.698 |
| Calu-6 | 1.17 | 1.08 | 0.874 | 1.03 | 1.14 |  |  |  |  | 0.968 | 0.873 | 0.849 | 0.327 | 0.11 |  |  |  |  |  |  |
| ChaGo-K-1 |  |  |  |  |  | 0.27 | 0.261 | 0.253 | 0.269 | 0.587 | 0.397 | 0.683 | 0.669 | 0.776 | 0.297 | 0.254 | 0.251 | 0.256 | 0.258 | 0.251 |
| EBC-1 | 0.252 | 0.206 | 0.213 | 0.226 | 0.202 |  |  |  |  | 0.441 | 0.31 | 0.263 | 0.195 | 0.101 |  |  |  |  |  |  |
| EKVX | 0.19 | 0.23 | 0.196 | 0.227 | 0.203 | 0.281 | 0.369 | 0.255 | 0.194 | 0.442 | 0.442 | 0.443 | 0.469 | 0.354 | 0.42 | 0.474 | 0.396 | 0.409 | 0.416 | 0.205 |
| EMC-BAC-2 | 0.925 | 0.804 | 0.88 | 0.816 | 0.868 |  | 0.407 | 0.412 | 0.354 | 0.491 | 0.55 | 0.489 | 0.54 | 0.46 | 0.482 | 0.462 | 0.486 | 0.524 | 0.438 | 0.36 |
| EPLC-272H | 0.834 |  | 0.862 | 0.77 | 0.671 | 0.346 | 0.256 |  | 0.27 | 0.324 | 0.306 | 0.338 | 0.352 | 0.325 | 0.42 | 0.359 | 0.308 | 0.345 | 0.358 | 0.339 |
| H3255 | 0.272 | 0.228 | 0.271 | 0.246 | 0.254 | 0.453 | 0.547 | 0.446 | 0.453 | 0.472 | 0.482 | 0.437 | 0.394 | 0.447 | 0.585 | 0.587 | 0.565 | 0.57 | 0.567 | 0.486 |
| HARA | 0.762 | 0.994 | 0.7 | 0.708 | 0.703 | 0.2 | 0.247 | 0.209 | 0.211 | 0.556 | 0.461 | 0.402 | 0.436 | 0.235 | 0.228 | 0.231 | 0.283 | 0.247 | 0.222 | 0.202 |
| HCC-15 | 0.898 |  | 0.806 | 1.01 | 0.897 | 0.2 | 0.207 | 0.179 | 0.191 | 0.721 | 0.852 | 0.7 | 0.857 | 0.673 | 0.214 | 0.248 | 0.226 | 0.231 | 0.235 | 0.19 |
| HCC-44 | 0.982 |  | 0.951 | 0.995 | 0.949 | 0.638 | 0.632 | 0.547 | 0.548 | 0.545 | 0.605 | 0.592 | 0.67 | 0.399 | 0.697 | 0.654 | 0.619 | 0.622 | 0.621 | 0.595 |
